Results from ChEMBL document CHEMBL4507276 (2021).

Legend:
[1] = molecular target: Tyrosine-protein kinase ABL1 (Homo sapiens) (UniProt P00519); conditions: Compound concentration 1000.0 nM
[2] = system: Epidermal growth factor receptor (Homo sapiens), P00533 [L861Q]; assay: EGFR L861Q Invitrogen selectivity data (BI); conditions: Compound concentration 3.0 uM
[3] = molecular target: MAP kinase-interacting serine/threonine-protein kinase 2 (Homo sapiens) (UniProt Q9HBH9); assay: MKNK2 (MNK2) Invitrogen selectivity data (BI); conditions: Compound concentration 3.0 uM
[4] = molecular target: SRSF protein kinase 2 (Homo sapiens) (UniProt P78362); assay: SRPK2 Invitrogen selectivity data (BI); conditions: Compound concentration 3.0 uM
[5] = molecular target: Phosphatidylinositol 3-kinase regulatory subunit gamma (Bos taurus) (UniProt O46404); assay: PROTKINP55 Cerep selectivity data (BI); conditions: Compound concentration 20.0 uM
[6] = molecular target: T1, Testis-specific serine/threonine-protein kinase 3 (Homo sapiens) (UniProt Q96PN8); assay: STK22D Invitrogen selectivity data (BI); conditions: Compound concentration 3.0 uM
T1 sequence (whole entry): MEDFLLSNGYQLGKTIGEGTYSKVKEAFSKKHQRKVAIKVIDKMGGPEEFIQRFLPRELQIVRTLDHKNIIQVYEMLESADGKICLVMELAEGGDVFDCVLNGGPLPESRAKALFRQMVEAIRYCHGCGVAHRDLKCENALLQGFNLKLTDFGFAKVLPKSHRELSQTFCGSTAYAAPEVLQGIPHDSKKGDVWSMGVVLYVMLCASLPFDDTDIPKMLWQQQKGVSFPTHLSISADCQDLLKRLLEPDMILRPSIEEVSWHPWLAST

[7] = molecular target: Sodium/potassium-transporting ATPase subunit alpha-1 (Sus scrofa) (UniProt P05024); assay: ATPASE(NA/K) Cerep selectivity data (BI); conditions: Compound concentration 20.0 uM
[8] = molecular target: T2, Mitogen-activated protein kinase kinase kinase 2 (Homo sapiens) (UniProt Q9Y2U5); assay: MAP3K2 Invitrogen selectivity data (BI); conditions: Compound concentration 3.0 uM
T2 sequence (whole entry): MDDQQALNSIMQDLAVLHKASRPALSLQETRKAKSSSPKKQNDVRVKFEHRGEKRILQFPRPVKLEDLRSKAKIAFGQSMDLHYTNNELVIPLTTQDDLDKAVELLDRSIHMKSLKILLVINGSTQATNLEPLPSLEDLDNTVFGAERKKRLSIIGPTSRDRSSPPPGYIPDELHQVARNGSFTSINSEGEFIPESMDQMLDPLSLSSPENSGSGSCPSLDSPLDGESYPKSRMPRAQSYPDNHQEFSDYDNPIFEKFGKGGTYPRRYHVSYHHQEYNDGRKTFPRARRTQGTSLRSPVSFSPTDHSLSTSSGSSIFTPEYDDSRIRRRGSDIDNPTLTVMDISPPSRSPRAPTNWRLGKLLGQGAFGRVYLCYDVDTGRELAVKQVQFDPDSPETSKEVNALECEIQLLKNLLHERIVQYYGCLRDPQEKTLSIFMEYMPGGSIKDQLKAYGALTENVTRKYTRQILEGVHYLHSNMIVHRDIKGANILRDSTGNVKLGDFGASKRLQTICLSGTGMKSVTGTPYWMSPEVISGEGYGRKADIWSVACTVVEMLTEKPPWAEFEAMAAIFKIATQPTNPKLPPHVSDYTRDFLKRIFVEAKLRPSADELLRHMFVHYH

[9] = molecular target: Rod cGMP-specific 3',5'-cyclic phosphodiesterase subunit alpha (Bos taurus) (UniProt P11541); assay: PDE6_CE Cerep selectivity data (BI); conditions: Compound concentration 20.0 uM
[10] = molecular target: Cannabinoid receptor 1 (Homo sapiens) (UniProt P21554); assay: CB1/CENTR/H Cerep selectivity data (BI); conditions: Compound concentration 20.0 uM
[11] = molecular target: G protein-coupled receptor kinase 5 (Homo sapiens) (UniProt P34947); assay: GRK5 Invitrogen selectivity data (BI); conditions: Compound concentration 3.0 uM
[12] = molecular target: Maternal embryonic leucine zipper kinase (Homo sapiens) (UniProt Q14680); assay: MELK Invitrogen selectivity data (BI); conditions: Compound concentration 3.0 uM
[13] = molecular target: Prostaglandin G/H synthase 2 (Homo sapiens) (UniProt P35354); assay: COX2_HU Cerep selectivity data (BI); conditions: Compound concentration 20.0 uM
[14] = molecular target: T3, Serine/threonine-protein kinase DCLK2 (Homo sapiens) (UniProt Q8N568); assay: DCAMKL2 Invitrogen selectivity data (BI); conditions: Compound concentration 3.0 uM
T3 sequence (whole entry): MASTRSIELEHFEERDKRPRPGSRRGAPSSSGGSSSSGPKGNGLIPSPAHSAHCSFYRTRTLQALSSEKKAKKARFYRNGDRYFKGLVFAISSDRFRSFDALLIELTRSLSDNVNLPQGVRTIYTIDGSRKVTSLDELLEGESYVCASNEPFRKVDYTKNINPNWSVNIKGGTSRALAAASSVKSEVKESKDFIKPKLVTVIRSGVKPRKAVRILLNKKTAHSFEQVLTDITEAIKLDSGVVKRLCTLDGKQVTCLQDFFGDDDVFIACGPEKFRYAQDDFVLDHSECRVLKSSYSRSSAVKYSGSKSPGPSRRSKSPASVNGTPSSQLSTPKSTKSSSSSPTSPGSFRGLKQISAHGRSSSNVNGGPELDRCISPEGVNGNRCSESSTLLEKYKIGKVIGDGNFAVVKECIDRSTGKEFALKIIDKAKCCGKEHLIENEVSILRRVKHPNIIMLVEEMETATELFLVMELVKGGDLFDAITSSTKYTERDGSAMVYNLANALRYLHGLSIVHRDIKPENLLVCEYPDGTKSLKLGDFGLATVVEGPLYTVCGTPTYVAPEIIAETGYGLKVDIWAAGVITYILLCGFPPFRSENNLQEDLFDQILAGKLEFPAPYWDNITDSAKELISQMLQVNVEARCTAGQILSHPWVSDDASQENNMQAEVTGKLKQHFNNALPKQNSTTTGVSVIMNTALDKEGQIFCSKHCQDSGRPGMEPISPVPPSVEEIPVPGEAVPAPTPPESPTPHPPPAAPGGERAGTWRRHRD

[15] = molecular target: Homeodomain-interacting protein kinase 1 (Homo sapiens) (UniProt Q86Z02); assay: HIPK1 Invitrogen selectivity data (BI); conditions: Compound concentration 3.0 uM

Measured: residual activity

Sequence of Prostaglandin G/H synthase 2 (Homo sapiens) (P35354 whole entry): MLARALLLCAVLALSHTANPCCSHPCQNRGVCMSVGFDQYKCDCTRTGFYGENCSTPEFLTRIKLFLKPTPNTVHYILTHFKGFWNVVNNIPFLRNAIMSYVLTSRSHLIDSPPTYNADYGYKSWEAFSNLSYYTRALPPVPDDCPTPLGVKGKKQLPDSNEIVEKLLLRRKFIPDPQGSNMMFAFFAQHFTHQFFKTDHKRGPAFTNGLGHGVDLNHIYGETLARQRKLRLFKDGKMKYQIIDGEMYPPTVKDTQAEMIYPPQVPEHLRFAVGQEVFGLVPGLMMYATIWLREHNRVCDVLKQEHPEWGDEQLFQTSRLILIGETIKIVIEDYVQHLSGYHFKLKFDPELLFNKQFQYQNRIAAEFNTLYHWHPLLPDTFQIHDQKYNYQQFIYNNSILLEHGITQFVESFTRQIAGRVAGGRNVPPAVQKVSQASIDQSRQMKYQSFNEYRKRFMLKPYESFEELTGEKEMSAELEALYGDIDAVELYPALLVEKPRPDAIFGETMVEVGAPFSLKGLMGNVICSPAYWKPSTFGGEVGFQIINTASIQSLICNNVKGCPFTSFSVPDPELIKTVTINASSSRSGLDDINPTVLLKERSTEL
Sequence of Rod cGMP-specific 3',5'-cyclic phosphodiesterase subunit alpha (Bos taurus) (P11541 whole entry): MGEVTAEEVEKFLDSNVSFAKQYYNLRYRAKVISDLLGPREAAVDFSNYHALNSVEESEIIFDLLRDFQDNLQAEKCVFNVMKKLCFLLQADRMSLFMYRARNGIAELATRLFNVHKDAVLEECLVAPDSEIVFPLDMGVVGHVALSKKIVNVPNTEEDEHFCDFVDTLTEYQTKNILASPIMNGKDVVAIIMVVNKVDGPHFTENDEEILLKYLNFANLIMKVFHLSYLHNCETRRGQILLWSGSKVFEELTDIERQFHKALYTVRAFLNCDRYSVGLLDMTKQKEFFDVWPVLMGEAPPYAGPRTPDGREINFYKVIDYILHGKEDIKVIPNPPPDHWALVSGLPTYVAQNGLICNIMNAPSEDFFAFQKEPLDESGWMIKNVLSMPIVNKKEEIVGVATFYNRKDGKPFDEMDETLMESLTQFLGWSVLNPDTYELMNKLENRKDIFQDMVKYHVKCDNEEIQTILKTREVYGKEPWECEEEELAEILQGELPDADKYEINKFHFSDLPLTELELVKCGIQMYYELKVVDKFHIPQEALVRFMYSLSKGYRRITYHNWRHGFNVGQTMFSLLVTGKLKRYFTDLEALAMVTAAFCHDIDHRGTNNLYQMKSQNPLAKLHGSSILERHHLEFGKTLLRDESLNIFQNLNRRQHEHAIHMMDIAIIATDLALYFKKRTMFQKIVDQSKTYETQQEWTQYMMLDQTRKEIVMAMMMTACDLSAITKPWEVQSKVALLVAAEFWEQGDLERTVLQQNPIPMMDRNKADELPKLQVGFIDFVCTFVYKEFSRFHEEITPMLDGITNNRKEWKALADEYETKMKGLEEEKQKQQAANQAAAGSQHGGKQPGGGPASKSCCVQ
Sequence of MAP kinase-interacting serine/threonine-protein kinase 2 (Homo sapiens) (Q9HBH9 whole entry, looked up): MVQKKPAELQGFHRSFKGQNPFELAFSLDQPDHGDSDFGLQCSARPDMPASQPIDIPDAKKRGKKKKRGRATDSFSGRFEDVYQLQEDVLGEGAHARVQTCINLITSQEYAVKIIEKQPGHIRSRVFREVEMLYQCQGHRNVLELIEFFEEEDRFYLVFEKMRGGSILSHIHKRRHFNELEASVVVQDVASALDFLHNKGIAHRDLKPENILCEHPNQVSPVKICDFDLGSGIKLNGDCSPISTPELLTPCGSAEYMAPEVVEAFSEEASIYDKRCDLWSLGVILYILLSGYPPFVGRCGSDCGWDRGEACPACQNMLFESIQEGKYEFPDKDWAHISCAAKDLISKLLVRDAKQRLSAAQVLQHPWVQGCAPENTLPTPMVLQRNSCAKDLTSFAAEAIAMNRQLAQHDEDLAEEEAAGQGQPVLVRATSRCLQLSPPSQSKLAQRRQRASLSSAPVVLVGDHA
Sequence of Cannabinoid receptor 1 (Homo sapiens) (P21554 whole entry): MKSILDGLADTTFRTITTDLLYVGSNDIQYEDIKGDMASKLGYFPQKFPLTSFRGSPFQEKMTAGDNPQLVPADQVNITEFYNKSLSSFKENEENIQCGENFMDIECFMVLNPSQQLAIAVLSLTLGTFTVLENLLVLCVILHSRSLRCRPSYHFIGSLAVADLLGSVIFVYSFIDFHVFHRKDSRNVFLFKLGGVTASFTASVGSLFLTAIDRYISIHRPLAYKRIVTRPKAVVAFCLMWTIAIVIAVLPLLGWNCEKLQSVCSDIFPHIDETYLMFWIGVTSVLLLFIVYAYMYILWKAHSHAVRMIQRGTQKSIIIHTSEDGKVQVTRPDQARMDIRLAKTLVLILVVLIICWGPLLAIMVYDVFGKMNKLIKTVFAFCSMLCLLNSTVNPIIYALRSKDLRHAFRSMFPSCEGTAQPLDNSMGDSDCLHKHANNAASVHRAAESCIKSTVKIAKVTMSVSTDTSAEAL
Sequence of Homeodomain-interacting protein kinase 1 (Homo sapiens) (Q86Z02 whole entry, looked up): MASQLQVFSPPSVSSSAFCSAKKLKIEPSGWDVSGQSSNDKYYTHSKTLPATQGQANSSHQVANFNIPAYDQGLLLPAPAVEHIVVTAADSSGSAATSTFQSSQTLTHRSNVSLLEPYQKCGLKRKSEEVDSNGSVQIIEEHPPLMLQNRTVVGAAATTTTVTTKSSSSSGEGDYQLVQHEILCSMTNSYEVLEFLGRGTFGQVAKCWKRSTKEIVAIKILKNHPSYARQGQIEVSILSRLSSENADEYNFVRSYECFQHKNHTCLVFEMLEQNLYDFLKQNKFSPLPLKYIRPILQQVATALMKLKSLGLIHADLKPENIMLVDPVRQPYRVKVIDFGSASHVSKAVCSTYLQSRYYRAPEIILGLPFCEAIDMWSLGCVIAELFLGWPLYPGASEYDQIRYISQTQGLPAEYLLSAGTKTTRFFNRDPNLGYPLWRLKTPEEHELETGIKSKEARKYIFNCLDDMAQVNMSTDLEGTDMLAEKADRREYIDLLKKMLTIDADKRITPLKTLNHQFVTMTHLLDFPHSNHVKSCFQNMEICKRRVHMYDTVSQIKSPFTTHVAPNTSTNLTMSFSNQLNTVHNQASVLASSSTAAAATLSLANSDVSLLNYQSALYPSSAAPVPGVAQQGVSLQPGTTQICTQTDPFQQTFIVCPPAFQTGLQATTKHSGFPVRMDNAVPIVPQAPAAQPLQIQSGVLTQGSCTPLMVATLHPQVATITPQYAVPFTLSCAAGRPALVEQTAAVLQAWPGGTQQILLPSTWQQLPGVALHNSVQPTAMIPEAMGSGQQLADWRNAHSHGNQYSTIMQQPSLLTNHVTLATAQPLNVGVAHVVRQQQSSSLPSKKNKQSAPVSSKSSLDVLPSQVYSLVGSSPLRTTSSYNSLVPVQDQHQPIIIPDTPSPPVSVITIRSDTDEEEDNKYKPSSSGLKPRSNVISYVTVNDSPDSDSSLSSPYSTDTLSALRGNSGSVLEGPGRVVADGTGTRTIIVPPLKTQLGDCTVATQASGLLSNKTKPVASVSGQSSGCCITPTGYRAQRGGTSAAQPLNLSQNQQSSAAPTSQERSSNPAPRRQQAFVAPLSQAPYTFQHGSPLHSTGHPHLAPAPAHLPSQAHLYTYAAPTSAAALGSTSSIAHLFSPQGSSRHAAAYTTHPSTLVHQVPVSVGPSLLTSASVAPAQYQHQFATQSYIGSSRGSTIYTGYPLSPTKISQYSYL
Sequence of SRSF protein kinase 2 (Homo sapiens) (P78362 whole entry, looked up): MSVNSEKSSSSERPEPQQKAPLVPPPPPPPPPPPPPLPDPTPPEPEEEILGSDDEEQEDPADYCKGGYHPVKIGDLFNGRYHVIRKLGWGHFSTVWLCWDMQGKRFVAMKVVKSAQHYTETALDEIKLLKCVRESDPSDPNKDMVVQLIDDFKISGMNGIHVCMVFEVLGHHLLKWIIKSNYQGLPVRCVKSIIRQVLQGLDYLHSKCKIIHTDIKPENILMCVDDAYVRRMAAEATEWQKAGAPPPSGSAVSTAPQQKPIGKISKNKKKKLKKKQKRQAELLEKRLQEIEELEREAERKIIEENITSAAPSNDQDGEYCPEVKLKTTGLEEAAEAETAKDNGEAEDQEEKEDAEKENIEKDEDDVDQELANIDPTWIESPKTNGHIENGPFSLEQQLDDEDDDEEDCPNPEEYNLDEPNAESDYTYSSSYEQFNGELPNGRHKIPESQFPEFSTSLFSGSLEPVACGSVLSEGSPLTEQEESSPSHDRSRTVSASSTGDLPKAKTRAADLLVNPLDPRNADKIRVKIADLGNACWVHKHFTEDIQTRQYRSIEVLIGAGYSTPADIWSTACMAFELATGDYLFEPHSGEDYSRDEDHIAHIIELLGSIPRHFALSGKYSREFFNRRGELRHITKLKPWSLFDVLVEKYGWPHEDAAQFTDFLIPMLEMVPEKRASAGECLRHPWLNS

CN(C)C(=O)Cn1cc(-c2nc(C3(c4ccc(-c5cnc(N)nc5)cc4)CC3)no2)cn1 [BI 0153]
inactive: [1] 100%

CN(C)C(=O)Cn1cc(-c2nc([C@@](C)(c3ccc(-c4cnc(N)nc4)cc3)C3CC3)no2)cn1 [BI 665915]
inactive: [2] 98% | [3] 99% | [4] 98% | [5] 98% | [6] 96.5% | [7] 99% | [8] 97% | [9] 101% | [10] 88% | [11] 100% | [12] 94% | [13] 64% | [14] 97% | [15] 97%
